Experimental data published in US6235761A, “Compound, composition and method for treating cancer” (priority 1999, dated 2001).

How the values were obtained:
CAKI-1 renal tumor = assay: sc CAKI-1 renal tumor in athymic mice (Table 2); format: in vivo, human tumor in athymic mice (Ncr-nu); conditions: for T-C / Tumor-Free Survival/Total: days 19-23
Description: (§1) This Example illustrates the efficacy of penclomedine and 4-demethylpenclomedine in the treatment of cancer. MX-1 mammary tumor xenograft was subcutaneously implanted into mice, and the mice were exposed to the compounds. The testing of the mice was performed following a published procedure. See, e.g., Plowman et al., supra; Geran et al., Cancer Chemother. Rep., Part 2, 1-55 (1972); Developmental Therapeutics Program, Division of Cancer Treatment, NCI, in In Vivo Models 1976-1982, NIH Publication No. 84-2635, Washington D.C., U.S. Govt. Printing Office (1984).
(§2) This Example further illustrates the efficacy of penclomedine and 4-demethylpenclomedine in the treatment of cancer. The compounds were tested in vivo on mice by the procedure set forth in Example 2. The results obtained are set forth in Table 2 and confirm that 4-demethyl-penclomedine is active against cancer, particularly mammary, colon, and renal cancer.
(§3) ^a Athymic mice (Ncr-nu) were implanted either intracranially (ic) with
(§4) […] MX-1 mammary tumor cells or subcutaneously (sc) with fragments of
(§5) human tumors (CAKI-, renal; HT29, colon; MX-1, mammary).
(§6) ^b The difference in the median of time poststaging for tumors to
(§7) double in mass: T (treated mice), C (control mice)

[1] = Human plasma levels of penclomedine and demethylpenclomedine during 5 day penclomedine treatment; format: in vivo, human patients
Excerpt: FIG. 1 depicts levels of penclomedine and the demethylpenclomedine metabolite in human plasma, as determined by HPLC chromatographic analysis with uv detection.
FIG. 2 depicts the penclomedine (gray shade) and demethylpenclomedine (white) levels in human plasma on each of five treatment days. Data are from a single patient and are typical. The same ordinate scale is used for both penclomedine and demethylpenclomedine. Pre-infusion levels are depicted without cross hatchings; end of infusion levels are depicted with cross hatchings.
A 1 ml aliquot of tissue homogenate or a […] was acidified with 200 ml of 0.7 M ammonium phosphate pH 2.7, then 3 ml of ethyl acetate was added. This mixture was vortexed, centrifuged and the organic layer was collected. Fifty microliters of DMSO were added, and the ethyl acetate was concentrated to approximately […] with a stream of dry nitrogen. Fifty microliters of acetonitrile were added to this residue, and the resulting solution was analyzed by HPLC. Human plasma was processed identically to mouse plasma with the exception that 500 ml of plasma was extracted. Concentrated cage washings were analyzed by HPLC without further processing.
HPLC Assays: The HPLC system consisted of a Hewlett-Packard Series II 1090 liquid chromatograph with diode array detector (Hewlett-Packard, Palo Alto, Calif.). The column used was an Alltech Adsorbosphere HS C18 5 m 250×4.6 mm column (Alltech Associates, Deerfield, Ill.). The system used a gradient elution consisting of 100% 10 mM ammonium phosphate buffer pH 2.7 progressing to 100% acetonitrile over 25 minutes at 1 ml/min. Detection was performed by means of ultraviolet absorbance at 240 nm as well as by means of radioactivity using a Radiomatic Flo-One/Beta A140 radioactive flow detector (Packard Instrument Co., Downers Grove, Ill.) equipped with a […] and Flo-Scint VI scintillation cocktail at a 2:1 ratio.
This example illustrates the distribution of penclomedine and 4-demethylpenclomedine in human plasma during a 5 day treatment schedule using penclomedine.
Plasma levels of the metabolite and penclomedine were determined in 9 patients during the 5 day treatment schedule. […] Demethylpenclomedine plasma levels were equal to penclomedine plasma levels by 10 min after end of the infusion and rose to 9.5 μM by 7 hrs. […] The ratio of demethylpenclomedine to penclomedine in the post-infusion plasma sample obtained on day 1 of treatment was approximately 1:1; however, impressive accumulation of demethylpenclomedine was noted during the five day treatment schedule and by the final day this ratio was often greater than 10. […] A summary of post-infusion demethylpenclomedine plasma levels determined on each day of treatment for 9 patients is set forth in Table 4.

MX-1 mammary tumor = assay: sc MX-1 mammary tumor in athymic mice (Table 2); format: in vivo, human tumor in athymic mice (Ncr-nu)
Description: as §1, §2, §3, §4, §5, §6, §7

MX-1 mammary tumor cells = assay: ic MX-1 mammary tumor in athymic mice, increased life span (Table 2); format: in vivo, human tumor in athymic mice (Ncr-nu); conditions: days 1-5
Description: as §1, §2, §3, §4, §5
^c % ILS (increased life span) values are not provided where the mice
were sacrificed when tumors reached 4 g mass.

HT29 colon tumor = assay: sc HT29 colon tumor in athymic mice (Table 2); format: in vivo, human tumor in athymic mice (Ncr-nu); conditions: for T-C / Tumor-Free Survival/Total: days 14-18
Description: as §1, §2, §3, §4, §5, §6, §7

rats = conditions: dose related; during or immediately after infusion; cited from earlier work
dogs = conditions: cited from earlier work
[2] = test system: patients with advanced solid tumors; conditions: cited from earlier work
[3] = cited from earlier work
[4] = 1 hr i.v. infusion penclomedine 315 mg/m^2
[5] = human plasma, single patient, FIG. 1
[6] = repeated administration of penclomedine
[7] = 135 mg/kg/dose oral, highest dosage level, days 13-17
[8] = 135 mg/kg/dose oral, highest dosage level
[9] = five day samples, same patient, FIG. 2

## COc1nc(C(Cl)(Cl)Cl)c(Cl)c(O)c1Cl [4-Demethylpenclomedine, 3,5-dichloro-2-methoxy-4-hydroxy-6-(trichloromethyl)-pyridine]
CAKI-1 renal tumor; 90 mg/kg/dose IP
  T-C: 14.5 days
  Tumor-Free Survival/Total: 0/5
CAKI-1 renal tumor; Table 2
  activity against renal tumors (T-C): active against MX-1, colon, and renal tumors
[1]; 9 patients
  accumulation over the 5 day treatment: accumulation of metabolite was observed in all 9 patients
[1]; [4]
  time after end of infusion at which plasma levels equal those of penclomedine: ≤ 10 min
[1]; clinical samples
  time present in plasma: > 24 h
[1]; final day of five day schedule, often
  ratio of demethylpenclomedine to penclomedine in plasma: greater than 10
[1]; five day treatment schedule
  persistence in plasma: persisted in the plasma for an extended period of time
[1]; [5]
  plasma level time course: continues to increase with time
[1]; [6]
  drug exposure relative to parent compound: several hundred times that of the parent compound
  plasma level relative to peak plasma level of penclomedine: greater than ten times the peak plasma level of penclomedine
MX-1 mammary tumor; 90 mg/kg/dose IP, days 12-16
  T-C: > 41.0 days
  Tumor-Free Survival/Total: 3/5
MX-1 mammary tumor; 90 mg/kg/dose IP, days 15-19
  T-C: > 37.2 days
  Tumor-Free Survival/Total: 3/5
MX-1 mammary tumor; [7]
  T-C: 36.7 days
  Tumor-Free Survival/Total: 2/5
MX-1 mammary tumor; Table 2
  T-C, comparison of the two compounds: nearly identical T-C
  activity against MX-1 tumors (T-C): active against MX-1, colon, and renal tumors
MX-1 mammary tumor cells; 90 mg/kg/dose IP
  Median % ILS (dying mice only): +60%
  Tumor-Free Survival/Total: 0/5
MX-1 mammary tumor cells; [8]
  Median % ILS (dying mice only): +66%
  Tumor-Free Survival/Total: 1/5
HT29 colon tumor; 90 mg/kg/dose IP
  T-C: 6.0 days
  Tumor-Free Survival/Total: 0/5
HT29 colon tumor; Table 2
  activity against colon tumors (T-C): active against MX-1, colon, and renal tumors

## COc1nc(C(Cl)(Cl)Cl)c(Cl)c(OC)c1Cl [Penclomedine, 3,5-dichloro-2,4-dimethoxy-6-(trichloromethyl)pyridine]
rats
  neurotoxicity in rats: muscle tremors, incoordination, convulsions and reduced activity
CAKI-1 renal tumor; 135 mg/kg/dose IP
  T-C: 15.3 days
  Tumor-Free Survival/Total: 0/5
[1]; [4]
  decline of plasma levels after infusion: rapidly declined in an apparently biexponential fashion
[1]; [9]
  post-infusion plasma level: always less than μM
  pre-infusion plasma level: barely detectable
[1]; [5]
  plasma level time course: rapidly cleared from plasma
  α of biexponential decay: 3.88 h⁻¹
[1]; in vivo, iv, human plasma, single patient, FIG. 1, read-out: β of biexponential decay (converted)
  k el: 0.000127 s⁻¹
MX-1 mammary tumor; 135 mg/kg/dose IP, days 12-16
  T-C: > 41.0 days
  Tumor-Free Survival/Total: 5/5
MX-1 mammary tumor; 135 mg/kg/dose IP, days 13-17
  T-C: > 38.5 days
  Tumor-Free Survival/Total: 5/5
MX-1 mammary tumor; 135 mg/kg/dose IP, days 15-19
  T-C: > 37.2 days
  Tumor-Free Survival/Total: 5/5
MX-1 mammary tumor; Table 2
  T-C, comparison of the two compounds: nearly identical T-C
  survival rate, compared with 4-demethylpenclomedine: slightly higher survival rate
MX-1 mammary tumor cells; 90 mg/kg/dose IP
  Median % ILS (dying mice only): +88%
  Tumor-Free Survival/Total: 0/5
MX-1 mammary tumor cells; 90 mg/kg/dose oral
  Median % ILS (dying mice only): +72%
  Tumor-Free Survival/Total: 0/5
dogs
  plasma penclomedine levels associated with severe emesis and seizures: above 30 μM
[2]; human, in vivo
  toxicities reported in preclinical and early clinical studies: Neurological and hematological toxicities
[2]; one hour infusion for 5 consecutive days, advanced solid tumors
  principal dose limiting toxicity: Neurotoxicity, consisting of dysmetria, ataxia, and vertigo
HT29 colon tumor; 135 mg/kg/dose IP
  T-C: 1.5 days
  Tumor-Free Survival/Total: 0/5
[3]; during the time period of neurologic symptoms, rats, O'Reilly et al.
  detectability in the nervous system: penclomedine but not its metabolite is detectable in the nervous system
[3]; tumor-bearing rats
  predominant radioactive species in the brain: the predominant radioactive species in the brain was ^14 C-penclomedine
